Read-outs that look alike come from different tables or passages of the source.
How the values were obtained:
hGCGR = target: T1, hGCGR (Homo sapiens, UniProt P47871); test: Functional cAMP formation (HTRF) in HEK-293 clonal cells expressing hGCGR, 0.1% bovine casein, without or with 1.0% human serum albumin; type: cell-based
T1 construct: expressed in transfected cells
How it was run: (§1)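 Cells were stimulated with peptide for 30 min at 37° C, then lysed in buffer carrying cAMP-d2 and anti-cAMP Eu3+-cryptate for a competitive HTRF read after at least 60 min at room temperature. The 665/620 nm ratio was converted to nM cAMP against a standard curve.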

hGLP-1R = hGLP-1R (Homo sapiens, UniProt P43220); test: Functional cAMP formation (HTRF) in HEK-293 clonal cells expressing hGLP-1R, 0.1% bovine casein, without or with 1.0% human serum albumin; type: cell-based; design: expressed in transfected cells; conditions: for EC50: geometric mean
Chain of hGLP-1R (P43220 24-463): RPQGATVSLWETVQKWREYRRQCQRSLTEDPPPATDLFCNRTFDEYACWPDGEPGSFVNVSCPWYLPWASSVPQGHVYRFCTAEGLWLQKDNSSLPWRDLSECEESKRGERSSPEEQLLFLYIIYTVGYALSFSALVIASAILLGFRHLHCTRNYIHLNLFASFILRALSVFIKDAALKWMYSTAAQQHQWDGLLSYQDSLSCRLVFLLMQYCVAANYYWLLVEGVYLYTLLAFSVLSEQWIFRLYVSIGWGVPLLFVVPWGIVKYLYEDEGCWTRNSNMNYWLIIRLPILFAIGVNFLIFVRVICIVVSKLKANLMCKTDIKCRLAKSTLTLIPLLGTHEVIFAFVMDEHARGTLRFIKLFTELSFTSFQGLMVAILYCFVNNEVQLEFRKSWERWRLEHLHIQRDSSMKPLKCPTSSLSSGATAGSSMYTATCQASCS
How it was run: as §1

hGIPR = target: T2, hGIPR (Homo sapiens, UniProt P48546); test: Functional cAMP formation (HTRF) in HEK-293 clonal cells expressing hGIPR, 0.1% bovine casein, without or with 1.0% human serum albumin; type: cell-based; conditions: for EC50: geometric mean
T2 construct: expressed in transfected cells
T2 sequence (P48546 22-466): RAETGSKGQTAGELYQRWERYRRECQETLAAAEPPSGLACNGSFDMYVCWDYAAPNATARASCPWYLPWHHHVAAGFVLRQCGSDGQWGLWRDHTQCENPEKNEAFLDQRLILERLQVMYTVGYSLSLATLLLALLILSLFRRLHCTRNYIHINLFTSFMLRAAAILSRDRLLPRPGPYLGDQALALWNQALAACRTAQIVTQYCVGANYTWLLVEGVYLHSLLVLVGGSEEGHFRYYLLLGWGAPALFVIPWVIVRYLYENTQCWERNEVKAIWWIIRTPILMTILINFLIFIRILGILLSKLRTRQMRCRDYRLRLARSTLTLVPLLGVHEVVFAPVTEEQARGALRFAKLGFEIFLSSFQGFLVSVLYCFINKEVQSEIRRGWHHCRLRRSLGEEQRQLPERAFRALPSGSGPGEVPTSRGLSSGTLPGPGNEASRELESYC
How it was run: as §1

[1] = target: T3, human GLP-1 receptor (hGLP-1R) (Homo sapiens, UniProt P43220); test: [125I]-GLP-1 binding, SPA with membranes of HEK293 cells expressing hGLP-1R
T3 construct: expressed in transfected cells; crude membranes
T3 sequence (P43220 24-463): as the sequence (P43220 24-463) above

T1 sequence (P47871 26-477): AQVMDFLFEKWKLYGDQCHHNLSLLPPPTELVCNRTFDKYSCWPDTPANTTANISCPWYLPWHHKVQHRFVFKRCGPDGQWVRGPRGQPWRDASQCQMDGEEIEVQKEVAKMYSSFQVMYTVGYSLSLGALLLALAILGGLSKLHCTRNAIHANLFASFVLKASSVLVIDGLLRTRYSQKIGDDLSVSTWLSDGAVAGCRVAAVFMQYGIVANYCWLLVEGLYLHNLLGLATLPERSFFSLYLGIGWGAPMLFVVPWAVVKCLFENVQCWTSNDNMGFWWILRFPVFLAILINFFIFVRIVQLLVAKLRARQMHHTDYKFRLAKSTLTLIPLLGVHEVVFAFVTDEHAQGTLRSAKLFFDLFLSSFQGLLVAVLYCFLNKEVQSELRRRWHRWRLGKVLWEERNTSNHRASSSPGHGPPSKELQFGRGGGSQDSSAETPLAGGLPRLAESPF

`CCCCCCCCCCCCCCCC(=O)N[C@@H](CCC(=O)NCCOCCOCC(=O)NCCOCCOCC(=O)NCCCC[C@H](NC(=O)[C@H](CCCN)NC(=O)[C@H](CC(=O)O)NC(=O)[C@H](CC(C)C)NC(=O)[C@](C)(CC(C)C)NC(=O)[C@@H](NC(=O)[C@H](CO)NC(=O)[C@H](CCCCNC(=O)COCCOCCNC(=O)COCCOCCNC(=O)CC[C@H](NC(=O)CCCCCCCCCCCCCCC)C(=O)O)NC(=O)[C@H](CC(=O)O)NC(=O)[C@H](CO)NC(=O)[C@@H](NC(=O)[C@](C)(Cc1ccccc1F)NC(=O)[C@@H](NC(=O)CNC(=O)[C@H](CCC(=O)O)NC(=O)C(C)(C)NC(=O)[C@@H](N)Cc1ccc(O)cc1)[C@@H](C)O)[C@@H](C)O)[C@@H](C)CC)C(=O)N[C@@H](C)C(=O)N[C@@H](CCC(N)=O)C(=O)NC(C)(C)C(=O)N[C@@H](CCC(=O)O)C(=O)N[C@@H](Cc1ccccc1)C(=O)N[C@H](C(=O)N[C@H](CCC(=O)O)C(=O)N[C@@](C)(Cc1ccc(O)cc1)C(=O)N[C@@H](CC(C)C)C(=O)N[C@H](C(=O)N[C@@H](CCC(=O)O)C(=O)NCC(=O)NCC(=O)N1CCC[C@H]1C(=O)N[C@@H](CO)C(=O)N[C@@H](CO)C(=O)NCC(=O)N[C@@H](C)C(=O)N1CCC[C@H]1C(=O)N1CCC[C@H]1C(=O)N1CCC[C@H]1C(=O)N[C@@H](CO)C(N)=O)[C@@H](C)CC)[C@@H](C)CC)C(=O)O` [Example 29] showed an EC50 (hGCGR; 0.1% bovine casein and 1.0% human serum albumin, 37° C., geometric mean, read-out: hGCGR EC50, nM (SEM, n)) of over 9950 nM, an EC50 (hGCGR; cAMP, incubated at 37° C., 0.1% bovine casein (no human serum albumin), geometric mean, read-out: hGCGR EC50, nM (SEM, n)) of over 9950 nM and an EC50 (hGLP-1R; 0.1% bovine casein and 1.0% human serum albumin, 37° C., read-out: hGLP-1R EC50, nM (SEM, n)) of 0.876 nM. For the same compound, the Emax (hGLP-1R; HEK293, percent of maximal response to GLP-1(7-36)NH2, 37° C., 0.1% bovine casein, arithmetic mean, read-out: hGLP-1R Emax, % ± SEM) was 100 ± 6.65%, the EC50 (hGIPR; 0.1% bovine casein and 1.0% human serum albumin, 37° C., read-out: hGIPR EC50, nM (SEM, n)) was 0.472 nM and the Emax (hGIPR; HEK293, 0.1% bovine casein and 1.0% human serum albumin, 37° C., percent of maximal response to GIP(1-42)NH2, read-out: hGIPR Emax, % ± SEM) was 96.9 ± 5.32%. For the same compound, the Ki ([1]; human GLP-1R, geometric mean (SEM, n), read-out: Binding Affinity Ki, nM (SEM, n) hGLP-1R) was 0.412 nM.

`CC[C@H](C)[C@H](NC(=O)[C@H](CC(C)C)NC(=O)[C@](C)(Cc1ccc(O)cc1)NC(=O)[C@H](CCCCNC(=O)CCOCCOCCOCCOCCNC(=O)CC[C@H](NC(=O)CCCCCCCCCOc1ccc(C(=O)O)cc1)C(=O)O)NC(=O)[C@@H](NC(=O)[C@H](Cc1ccccc1)NC(=O)[C@H](CCCN)NC(=O)C(C)(C)NC(=O)[C@H](CCC(N)=O)NC(=O)[C@H](C)NC(=O)[C@H](CCC(N)=O)NC(=O)[C@H](CCCN)NC(=O)[C@H](CC(=O)O)NC(=O)[C@H](CC(C)C)NC(=O)[C@](C)(CC(C)C)NC(=O)[C@@H](NC(=O)C(C)(C)NC(=O)[C@H](Cc1ccncc1)NC(=O)[C@H](CC(=O)O)NC(=O)[C@H](CO)NC(=O)[C@@H](NC(=O)[C@](C)(Cc1ccccc1F)NC(=O)[C@@H](NC(=O)CNC(=O)[C@H](CCC(=O)O)NC(=O)C(C)(C)NC(=O)[C@@H](N)Cc1ccc(O)cc1)[C@@H](C)O)[C@@H](C)O)[C@@H](C)CC)[C@@H](C)CC)C(=O)N[C@@H](CCCCNC(=O)CCOCCOCCOCCOCCNC(=O)CC[C@H](NC(=O)CCCCCCCCCOc1ccc(C(=O)O)cc1)C(=O)O)C(=O)NCC(=O)NCC(=O)N1CCC[C@H]1C(=O)N[C@@H](CO)C(=O)N[C@@H](CO)C(=O)NCC(=O)N[C@@H](C)C(=O)N1CCC[C@H]1C(=O)N1CCC[C@H]1C(=O)N1CCC[C@H]1C(=O)N[C@@H](CO)C(N)=O` [Example 461] showed an EC50 (hGCGR; hGCGR EC50, nM (SEM, n), cAMP, 37° C., 0.1% bovine casein (no human serum albumin), geometric mean) of over 10100 nM, an EC50 (hGCGR; hGCGR EC50, nM (SEM, n), cAMP, 37° C., 0.1% bovine casein and 1.0% human serum albumin, geometric mean (SEM, n)) of over 10100 nM and an Emax (hGLP-1R; HEK293, read-out: hGLP-1R Emax, % ± SEM, cAMP, 37° C., 0.1% bovine casein and 1.0% human serum albumin, percent of maximal response to GLP-1(7-36)NH2) of 105%. It also gave an EC50 (hGLP-1R; hGLP-1R EC50, nM (SEM, n), cAMP, 37° C., 0.1% bovine casein (no human serum albumin)) of 0.173 nM, an Emax (hGIPR; HEK293, read-out: hGIPR Emax, % ± SEM, cAMP, 37° C., 0.1% bovine casein and 1.0% human serum albumin, percent of maximal response to GIP(1-42)NH2) of 98.5% and an Emax (hGIPR; HEK293, read-out: hGIPR Emax, % ± SEM, cAMP, 37° C., 0.1% bovine casein, percent of maximal response to GIP(1-42)NH2, arithmetic mean) of 100%. The EC50 (hGIPR; hGIPR EC50, nM (SEM, n), cAMP, 37° C., 0.1% bovine casein (no human serum albumin)) was 0.0103 nM and the Ki [1] was 0.14 nM.

In the case of `CC[C@H](C)[C@H](NC(=O)[C@H](CCCN)NC(=O)[C@H](CC(=O)O)NC(=O)[C@H](CC(C)C)NC(=O)[C@](C)(CC(C)C)NC(=O)[C@@H](NC(=O)C(C)(C)NC(=O)[C@H](Cc1ccncc1)NC(=O)[C@H](CC(=O)O)NC(=O)[C@H](CO)NC(=O)[C@@H](NC(=O)[C@](C)(Cc1ccccc1F)NC(=O)[C@@H](NC(=O)CNC(=O)[C@H](CCC(=O)O)NC(=O)C(C)(C)NC(=O)[C@@H](N)Cc1ccc(O)cc1)[C@@H](C)O)[C@@H](C)O)[C@@H](C)CC)C(=O)N[C@@H](C)C(=O)N[C@@H](CCC(N)=O)C(=O)NC(C)(C)C(=O)N[C@@H](CCC(=O)O)C(=O)N[C@@H](Cc1ccccc1)C(=O)N[C@H](C(=O)N[C@@H](CCCCNC(=O)COCCOCCNC(=O)COCCOCCNC(=O)CC[C@H](NC(=O)CCCCCCCCCOc1ccc(C(=O)O)cc1)C(=O)O)C(=O)N[C@@](C)(Cc1ccc(O)cc1)C(=O)N[C@@H](CC(C)C)C(=O)N[C@H](C(=O)N[C@@H](CCCCNC(=O)COCCOCCNC(=O)COCCOCCNC(=O)CC[C@H](NC(=O)CCCCCCCCCOc1ccc(C(=O)O)cc1)C(=O)O)C(=O)NCC(=O)NCC(=O)N1CCC[C@H]1C(=O)N[C@@H](CO)C(=O)N[C@@H](CO)C(=O)NCC(=O)N[C@@H](C)C(=O)N1CCC[C@H]1C(=O)N1CCC[C@H]1C(=O)N1CCC[C@H]1C(=O)N[C@@H](CO)C(N)=O)[C@@H](C)CC)[C@@H](C)CC` [Example 246], the EC50 (hGCGR; hGCGR EC50, nM (SEM, n), 0.1% bovine casein and 1.0% human serum albumin, 37° C., geometric mean) is reported as over 9950 nM, the EC50 (hGCGR; hGCGR EC50, nM (SEM, n), cAMP, incubated at 37° C., 0.1% bovine casein (no human serum albumin), geometric mean) is reported as over 9950 nM and the EC50 (hGLP-1R; hGLP-1R EC50, nM (SEM, n), cAMP, incubated at 37° C., 0.1% bovine casein (no human serum albumin)) is reported as 0.441 nM. For the same compound, the Emax (hGIPR; HEK293, read-out: hGIPR Emax, % ± SEM, 0.1% bovine casein and 1.0% human serum albumin, 37° C., percent of maximal response to GIP(1-42)NH2) was 91%, the Emax (hGIPR; HEK293, read-out: hGIPR Emax, % ± SEM, percent of maximal response to GIP(1-42)NH2, 37° C., 0.1% bovine casein, arithmetic mean) was 96.9% and the EC50 (hGIPR; hGIPR EC50, nM (SEM, n), cAMP, incubated at 37° C., 0.1% bovine casein (no human serum albumin)) was 0.0223 nM. It also gave a Ki [1] of 0.557 nM.

From patent US20230265151A1, “GIP/GLP1 CO-AGONIST COMPOUNDS” (priority 2020, published 2023)
